Values of other authors in patent US7045126B2, “Histone deacetylase-8 proteins, nucleic acids, and methods for use” (Applera Corporation, priority 1999, dated 2006).

Columns and labels:
tumor = tumor bearing nude mice
[1] = test system: acute promyelocytic leukemia (APL); details: incl. retinoic acid resistant forms
cell cycle = details: variety of systems

Q: Which results are given for `Nc1ccccc1NC(=O)c1ccc(CNC(=O)OCc2cccnc2)cc1` [MS-27275]?
A: histone hyperacetylation (histones): induces histone hyperacetylation; inhibition of tumor growth (tumor): demonstrates efficacy in inhibiting tumor growth

Q: For `CCCC(=O)[O-].[Na+]` [sodium butyrate], which “therapeutic use to target transcription in APL” value [1] is on record?
A: Its value is “successful even in retinoic acid resistant forms of the disease”.

Q: With `CC(/C=C/C(=O)NO)=C\[C@@H](C)C(=O)c1ccc(N(C)C)cc1` [trichostatin A] as the molecule, how does the “cell cycle arrest and/or differentiation” value (cell cycle) read?
A: The value was “induce cell cycle arrest and/or differentiation”.
